Values belong to the compound of their own block, whether it stands above or below them.
What was measured:
[1] = target: T1, Non-receptor tyrosine-protein kinase TYK2 (Homo sapiens, UniProt P29597); assay: Selectivity interaction (Enzymatic assay) EUB0000178b TYK2
[2] = target: Mitogen-activated protein kinase kinase kinase 3 (Homo sapiens, UniProt Q99759); assay: Selectivity interaction (Enzymatic assay) EUB0000178b MAP3K3
[3] = target: T1, Non-receptor tyrosine-protein kinase TYK2; assay: Selectivity interaction (KinomeScan (DiscoverX, competition-binding assay)) EUB0000178b TYK2
[4] = target: T1, Non-receptor tyrosine-protein kinase TYK2; assay: Selectivity interaction (KinomeScan (DiscoverX)) EUB0000178b TYK2; conditions: at 1 µM
[5] = target: Phosphatidylinositol 4-phosphate 5-kinase type-1 gamma (Homo sapiens) (UniProt O60331); assay: Selectivity interaction (KinomeScan (DiscoverX)) EUB0000178b PIP5K1C; conditions: at 1 µM
[6] = target: Mitogen-activated protein kinase kinase kinase 3 (Homo sapiens) (UniProt Q99759); assay: Selectivity interaction (KinomeScan (DiscoverX)) EUB0000178b MAP3K3; conditions: at 1 µM
[7] = target: Calcium/calmodulin-dependent protein kinase kinase 2 (Homo sapiens) (UniProt Q96RR4); assay: Selectivity interaction (KinomeScan (DiscoverX)) EUB0000169b CAMKK2; conditions: at 1 µM
[8] = target: Rho-associated protein kinase 2 (Homo sapiens) (UniProt O75116); assay: Selectivity interaction (Kinase panel (University of Dundee)) EUB0000169b ROCK2; conditions: at 10 µM
[9] = target: Casein kinase I isoform alpha (Homo sapiens) (UniProt P48729); conditions: at 10 µM
[10] = target: BMP-2-inducible protein kinase (Homo sapiens) (UniProt Q9NSY1); assay: Selectivity interaction (KinomeScan (DiscoverX)) EUB0000698a BMP2K; conditions: at 10 µM
[11] = target: T2, Cyclin-G-associated kinase (Homo sapiens) (UniProt O14976); assay: Selectivity interaction (KinomeScan (DiscoverX)) EUB0000698a GAK; conditions: at 10 µM
T2 sequence (whole entry): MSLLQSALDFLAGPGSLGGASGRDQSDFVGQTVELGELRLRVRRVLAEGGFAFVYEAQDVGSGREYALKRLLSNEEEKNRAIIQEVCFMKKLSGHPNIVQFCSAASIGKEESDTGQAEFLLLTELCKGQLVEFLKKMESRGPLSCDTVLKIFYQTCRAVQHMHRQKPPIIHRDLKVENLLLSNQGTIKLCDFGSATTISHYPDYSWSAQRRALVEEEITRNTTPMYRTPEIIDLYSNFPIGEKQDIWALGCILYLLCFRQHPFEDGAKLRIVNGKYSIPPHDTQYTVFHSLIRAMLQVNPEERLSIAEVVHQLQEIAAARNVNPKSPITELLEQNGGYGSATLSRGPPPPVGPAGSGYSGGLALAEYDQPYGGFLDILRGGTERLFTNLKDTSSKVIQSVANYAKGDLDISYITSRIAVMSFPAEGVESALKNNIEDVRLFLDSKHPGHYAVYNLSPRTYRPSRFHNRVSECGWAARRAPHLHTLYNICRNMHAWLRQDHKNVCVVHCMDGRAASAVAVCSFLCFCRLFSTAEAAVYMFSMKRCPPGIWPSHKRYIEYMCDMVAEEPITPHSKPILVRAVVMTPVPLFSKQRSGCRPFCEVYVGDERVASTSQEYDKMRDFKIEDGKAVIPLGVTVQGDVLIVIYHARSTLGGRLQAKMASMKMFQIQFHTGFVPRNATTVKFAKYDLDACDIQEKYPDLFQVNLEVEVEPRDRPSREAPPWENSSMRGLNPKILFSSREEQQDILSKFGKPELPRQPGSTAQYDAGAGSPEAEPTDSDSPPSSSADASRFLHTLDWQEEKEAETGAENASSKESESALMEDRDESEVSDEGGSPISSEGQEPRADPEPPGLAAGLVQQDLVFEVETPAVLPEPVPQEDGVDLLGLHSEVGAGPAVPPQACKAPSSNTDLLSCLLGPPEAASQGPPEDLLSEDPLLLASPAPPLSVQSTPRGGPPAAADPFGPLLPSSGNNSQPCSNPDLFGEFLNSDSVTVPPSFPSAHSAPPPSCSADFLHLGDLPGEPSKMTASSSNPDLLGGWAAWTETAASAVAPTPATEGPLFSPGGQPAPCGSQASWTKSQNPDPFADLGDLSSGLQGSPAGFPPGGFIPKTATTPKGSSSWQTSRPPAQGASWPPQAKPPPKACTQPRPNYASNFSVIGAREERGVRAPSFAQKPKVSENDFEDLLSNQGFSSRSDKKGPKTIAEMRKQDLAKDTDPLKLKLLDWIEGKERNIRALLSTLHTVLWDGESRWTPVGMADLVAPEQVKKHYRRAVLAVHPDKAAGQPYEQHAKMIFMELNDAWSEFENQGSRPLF

[12] = target: Serine/threonine-protein kinase 10 (Homo sapiens) (UniProt O94804); assay: Selectivity interaction (KinomeScan (DiscoverX)) EUB0000698a STK10; conditions: at 10 µM
[13] = target: Serine/threonine-protein kinase RIO1 (Homo sapiens) (UniProt Q9BRS2); assay: Selectivity interaction (KinomeScan (DiscoverX)) EUB0000702a RIOK1; conditions: at 1 µM
[14] = target: eIF-2-alpha kinase GCN2 (Homo sapiens) (UniProt Q9P2K8); assay: Selectivity interaction (KinomeScan (DiscoverX)) EUB0000702a EIF2AK4; conditions: at 1 µM
[15] = target: Serine/threonine-protein kinase ULK1 (Homo sapiens) (UniProt O75385); assay: Selectivity interaction (KinomeScan (DiscoverX)) EUB0000702a ULK1; conditions: at 1 µM
[16] = target: Serine/threonine-protein kinase Chk2 (Homo sapiens, UniProt O96017); conditions: at 1 µM
[17] = target: Macrophage-stimulating protein receptor (Homo sapiens) (UniProt Q04912); conditions: at 1 µM
Aurora kinase B = Aurora kinase B (Homo sapiens, UniProt Q96GD4); conditions: at 1 µM
[18] = target: T3, Dual specificity mitogen-activated protein kinase kinase 5 (Homo sapiens, UniProt Q13163); assay: Selectivity interaction (NanoBRET assay (HEK293T cells)) EUB0000305b MAP2K5
T3 sequence (Q13163 whole entry): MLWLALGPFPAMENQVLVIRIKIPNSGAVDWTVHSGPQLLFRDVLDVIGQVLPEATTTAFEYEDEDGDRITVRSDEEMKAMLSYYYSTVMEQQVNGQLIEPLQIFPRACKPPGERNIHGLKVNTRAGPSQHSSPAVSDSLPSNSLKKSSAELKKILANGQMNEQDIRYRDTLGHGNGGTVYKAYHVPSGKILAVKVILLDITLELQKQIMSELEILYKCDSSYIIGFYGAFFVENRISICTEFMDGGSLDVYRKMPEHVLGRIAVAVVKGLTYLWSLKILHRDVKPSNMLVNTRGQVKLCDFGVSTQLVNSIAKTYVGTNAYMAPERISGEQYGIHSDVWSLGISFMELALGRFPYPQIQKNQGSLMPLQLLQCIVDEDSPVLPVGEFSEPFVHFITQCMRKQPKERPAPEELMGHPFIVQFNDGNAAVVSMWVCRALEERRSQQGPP

T1 sequence (P29597 whole entry): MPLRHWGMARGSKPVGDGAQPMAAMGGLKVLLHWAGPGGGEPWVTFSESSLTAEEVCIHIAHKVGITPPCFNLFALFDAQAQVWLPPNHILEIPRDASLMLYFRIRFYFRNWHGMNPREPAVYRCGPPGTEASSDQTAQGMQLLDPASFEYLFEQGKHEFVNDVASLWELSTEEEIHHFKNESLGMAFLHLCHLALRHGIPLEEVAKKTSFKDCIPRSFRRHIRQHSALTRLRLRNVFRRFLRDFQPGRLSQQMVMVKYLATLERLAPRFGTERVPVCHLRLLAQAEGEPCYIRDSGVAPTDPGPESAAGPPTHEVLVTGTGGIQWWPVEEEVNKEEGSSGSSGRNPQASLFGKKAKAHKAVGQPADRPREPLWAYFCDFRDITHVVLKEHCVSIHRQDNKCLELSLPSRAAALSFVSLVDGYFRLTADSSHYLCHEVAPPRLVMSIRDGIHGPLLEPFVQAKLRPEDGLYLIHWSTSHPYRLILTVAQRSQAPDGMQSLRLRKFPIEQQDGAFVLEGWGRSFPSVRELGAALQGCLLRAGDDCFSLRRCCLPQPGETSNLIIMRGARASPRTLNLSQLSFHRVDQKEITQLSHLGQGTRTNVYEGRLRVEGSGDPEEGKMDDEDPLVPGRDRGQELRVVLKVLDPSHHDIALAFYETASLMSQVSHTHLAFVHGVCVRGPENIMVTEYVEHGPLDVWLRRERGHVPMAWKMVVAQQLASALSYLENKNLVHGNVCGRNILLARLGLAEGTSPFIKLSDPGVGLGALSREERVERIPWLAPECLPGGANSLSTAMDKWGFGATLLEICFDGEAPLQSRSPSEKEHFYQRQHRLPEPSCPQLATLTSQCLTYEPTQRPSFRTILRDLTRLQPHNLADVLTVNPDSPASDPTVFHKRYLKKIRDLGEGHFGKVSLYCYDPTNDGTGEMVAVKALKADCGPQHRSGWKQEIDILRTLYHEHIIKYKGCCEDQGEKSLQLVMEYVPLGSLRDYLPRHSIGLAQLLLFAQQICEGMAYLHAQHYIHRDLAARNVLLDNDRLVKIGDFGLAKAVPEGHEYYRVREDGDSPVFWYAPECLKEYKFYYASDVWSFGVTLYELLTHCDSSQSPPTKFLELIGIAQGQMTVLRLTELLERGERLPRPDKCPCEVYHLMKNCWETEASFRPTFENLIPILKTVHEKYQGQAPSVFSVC
Chain of Aurora kinase B (Q96GD4 whole entry): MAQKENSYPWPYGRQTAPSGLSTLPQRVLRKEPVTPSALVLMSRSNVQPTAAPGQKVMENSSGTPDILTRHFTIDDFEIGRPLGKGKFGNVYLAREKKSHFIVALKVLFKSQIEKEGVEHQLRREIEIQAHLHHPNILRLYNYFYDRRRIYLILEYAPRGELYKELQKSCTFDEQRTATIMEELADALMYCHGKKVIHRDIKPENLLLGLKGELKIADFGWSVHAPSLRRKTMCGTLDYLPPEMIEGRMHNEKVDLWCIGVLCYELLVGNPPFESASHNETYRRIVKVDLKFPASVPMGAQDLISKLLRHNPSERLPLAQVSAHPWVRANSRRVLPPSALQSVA
Chain of BMP-2-inducible protein kinase (Homo sapiens) (Q9NSY1 whole entry, looked up): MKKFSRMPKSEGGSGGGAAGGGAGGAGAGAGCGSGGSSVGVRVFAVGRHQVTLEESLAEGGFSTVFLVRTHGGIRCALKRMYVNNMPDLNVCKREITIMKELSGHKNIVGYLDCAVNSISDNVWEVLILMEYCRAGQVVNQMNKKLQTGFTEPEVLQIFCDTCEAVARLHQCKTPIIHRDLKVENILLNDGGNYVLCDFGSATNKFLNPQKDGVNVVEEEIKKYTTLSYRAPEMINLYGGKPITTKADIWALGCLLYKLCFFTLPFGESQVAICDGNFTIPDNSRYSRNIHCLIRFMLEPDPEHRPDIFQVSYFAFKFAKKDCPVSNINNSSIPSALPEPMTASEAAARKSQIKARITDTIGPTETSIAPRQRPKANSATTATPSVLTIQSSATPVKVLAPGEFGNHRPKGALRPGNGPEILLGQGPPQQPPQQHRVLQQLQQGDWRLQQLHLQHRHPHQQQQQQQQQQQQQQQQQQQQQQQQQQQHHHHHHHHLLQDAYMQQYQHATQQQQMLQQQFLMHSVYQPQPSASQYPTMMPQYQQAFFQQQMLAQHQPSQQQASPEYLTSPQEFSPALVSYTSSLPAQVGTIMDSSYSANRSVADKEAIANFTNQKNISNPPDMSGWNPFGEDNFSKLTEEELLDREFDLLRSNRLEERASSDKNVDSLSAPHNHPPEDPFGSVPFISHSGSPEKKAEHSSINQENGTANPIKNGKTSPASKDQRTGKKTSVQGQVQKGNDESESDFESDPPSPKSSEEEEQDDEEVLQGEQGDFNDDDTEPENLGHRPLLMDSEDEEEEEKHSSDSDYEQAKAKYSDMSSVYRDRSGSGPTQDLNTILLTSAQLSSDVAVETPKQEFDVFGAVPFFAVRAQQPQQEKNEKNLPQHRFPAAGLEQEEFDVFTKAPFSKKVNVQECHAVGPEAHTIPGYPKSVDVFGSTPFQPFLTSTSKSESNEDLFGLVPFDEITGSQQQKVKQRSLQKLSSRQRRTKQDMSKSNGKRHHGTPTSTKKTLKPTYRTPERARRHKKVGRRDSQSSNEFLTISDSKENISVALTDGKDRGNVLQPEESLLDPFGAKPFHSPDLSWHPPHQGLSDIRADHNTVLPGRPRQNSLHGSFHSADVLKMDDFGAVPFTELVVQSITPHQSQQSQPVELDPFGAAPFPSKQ
Chain of Serine/threonine-protein kinase Chk2 (O96017 whole entry): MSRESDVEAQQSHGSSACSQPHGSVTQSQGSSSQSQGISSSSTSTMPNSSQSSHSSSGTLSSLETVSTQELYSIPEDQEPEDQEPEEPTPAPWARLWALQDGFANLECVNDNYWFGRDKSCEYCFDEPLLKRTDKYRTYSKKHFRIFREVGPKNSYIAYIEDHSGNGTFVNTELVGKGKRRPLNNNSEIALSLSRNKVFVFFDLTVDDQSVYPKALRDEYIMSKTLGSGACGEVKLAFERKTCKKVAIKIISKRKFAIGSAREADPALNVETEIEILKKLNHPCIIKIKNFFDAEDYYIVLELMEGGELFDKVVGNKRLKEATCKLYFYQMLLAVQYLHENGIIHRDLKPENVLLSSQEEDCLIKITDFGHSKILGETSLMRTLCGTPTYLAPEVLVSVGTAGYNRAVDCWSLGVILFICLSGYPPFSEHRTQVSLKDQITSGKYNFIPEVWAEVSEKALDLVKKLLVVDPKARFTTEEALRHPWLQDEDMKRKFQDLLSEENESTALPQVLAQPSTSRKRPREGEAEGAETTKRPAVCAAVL
Chain of Casein kinase I isoform alpha (Homo sapiens) (P48729 2-337 limits assumed): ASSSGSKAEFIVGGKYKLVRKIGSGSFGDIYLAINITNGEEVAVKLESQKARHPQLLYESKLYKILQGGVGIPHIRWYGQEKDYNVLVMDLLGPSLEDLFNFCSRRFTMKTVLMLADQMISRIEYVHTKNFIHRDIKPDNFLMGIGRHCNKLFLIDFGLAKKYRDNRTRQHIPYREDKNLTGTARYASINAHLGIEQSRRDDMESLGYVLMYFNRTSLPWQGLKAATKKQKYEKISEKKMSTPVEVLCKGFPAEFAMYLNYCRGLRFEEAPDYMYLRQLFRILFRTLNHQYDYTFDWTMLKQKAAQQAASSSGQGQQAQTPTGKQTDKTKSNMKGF
Chain of Phosphatidylinositol 4-phosphate 5-kinase type-1 gamma (Homo sapiens) (O60331 whole entry): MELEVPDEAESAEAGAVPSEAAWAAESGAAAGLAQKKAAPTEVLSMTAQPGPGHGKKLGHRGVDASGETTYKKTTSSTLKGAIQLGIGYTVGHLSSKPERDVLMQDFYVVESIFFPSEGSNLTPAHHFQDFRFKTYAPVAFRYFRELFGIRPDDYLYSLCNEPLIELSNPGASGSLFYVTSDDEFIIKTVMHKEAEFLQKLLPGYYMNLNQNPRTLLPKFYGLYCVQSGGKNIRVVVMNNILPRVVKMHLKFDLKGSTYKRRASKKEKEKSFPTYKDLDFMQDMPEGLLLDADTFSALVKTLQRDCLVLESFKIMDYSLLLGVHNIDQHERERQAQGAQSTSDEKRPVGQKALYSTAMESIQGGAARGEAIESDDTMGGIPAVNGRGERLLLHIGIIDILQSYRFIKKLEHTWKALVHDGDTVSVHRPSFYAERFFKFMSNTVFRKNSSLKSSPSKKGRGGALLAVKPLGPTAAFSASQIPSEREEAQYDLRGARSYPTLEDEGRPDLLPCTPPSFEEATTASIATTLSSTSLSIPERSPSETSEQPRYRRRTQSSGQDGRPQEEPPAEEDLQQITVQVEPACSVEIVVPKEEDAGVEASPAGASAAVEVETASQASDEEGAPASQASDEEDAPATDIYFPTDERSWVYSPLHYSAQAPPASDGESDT
Chain of Calcium/calmodulin-dependent protein kinase kinase 2 (Homo sapiens) (Q96RR4 2-588 limits assumed): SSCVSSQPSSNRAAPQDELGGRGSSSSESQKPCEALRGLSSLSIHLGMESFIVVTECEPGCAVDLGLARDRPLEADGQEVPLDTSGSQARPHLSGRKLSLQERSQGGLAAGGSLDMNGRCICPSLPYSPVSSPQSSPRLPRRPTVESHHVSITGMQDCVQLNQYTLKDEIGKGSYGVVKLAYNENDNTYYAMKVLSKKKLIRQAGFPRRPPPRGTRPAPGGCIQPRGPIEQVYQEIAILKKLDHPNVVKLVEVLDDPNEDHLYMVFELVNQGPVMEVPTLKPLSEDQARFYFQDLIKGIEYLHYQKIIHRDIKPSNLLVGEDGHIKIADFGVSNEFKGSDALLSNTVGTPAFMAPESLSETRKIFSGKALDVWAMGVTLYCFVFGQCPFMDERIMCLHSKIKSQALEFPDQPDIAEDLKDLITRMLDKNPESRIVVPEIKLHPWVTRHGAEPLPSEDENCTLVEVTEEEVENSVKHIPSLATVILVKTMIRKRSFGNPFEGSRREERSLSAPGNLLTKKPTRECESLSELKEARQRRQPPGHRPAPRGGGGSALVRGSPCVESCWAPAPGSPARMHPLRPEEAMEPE

IC50 [1]: 254 nM
IC50 [2]: 34.8 nM
Kd [3]: 610 nM
% of control [4]: 2.7%
% of control [5]: 10%
% of control [6]: 2%
SMILES: CN1C(=O)c2sccc2N(C)c2nc(Nc3ccc(S(N)(=O)=O)cc3)ncc21

% of control [7]: 3.4%
% of control [8]: 98%
% of control [9]: 56%
SMILES: CC[C@@H]1C(=O)N(C)c2cnc(Nc3ccc(C(=O)NC4CCN(C)CC4)cc3OC)nc2N1C1CCCC1

% of control [10]: 1%
% of control [11]: 4.1%
% of control [12]: 0%
SMILES: COc1cc2ncn(-c3cc(OCc4ccccc4C(F)(F)F)c(C(N)=O)s3)c2cc1OC [GW843682X]

% of control [13]: 9.7%
% of control [14]: 6.7%
% of control [15]: 1.2%
SMILES: CN(c1ccnc(CNc2nc(Nc3ccc4c(c3)CC(=O)N4)ncc2C(F)(F)F)n1)S(C)(=O)=O [PF-00911705]

SMILES: CCOc1cn(-c2ccc(F)cc2C)nc1C(=O)Nc1ccc(Oc2ccnc3cc(OC)c(OC)cc23)c(F)c1
% of control [16]: < 10%
% of control [17]: < 10%
% of control (Aurora kinase B): < 10%

IC50 [18]: > 20000 nM
SMILES: C[C@H](c1ccnc(Nc2nc3ccc(-c4cc(N(C)C)ncn4)cc3[nH]2)c1)N1CCN(C(=O)CC(F)(F)F)CC1 [BAY-985]
